From PubChem BioAssay AID504726 (Broad Institute, 2011)
Active and inactive are the calls of the source.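 The calls were made as follows: active = fitted half-maximal concentration for a cytotoxic signal drop no higher than ten times the top valid dose tested; inconclusive = flat curve between -70 and -30 percent, or an unreliable fit; inactive = flat within 30 percent, signal rise, or potency beyond limit.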

Experiment: viability loss in HeLa cells – cell-based, 24 h, cherry-picked samples, cytotoxicity control, dose response (AID 504726);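 also: 0% = DMSO neutral controls and -100% = mitoxantrone positive controls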
Conditions: HeLa viability, CellTiter-Glo ATP luminescence, 24 h; at 35 µM (top of the series)

Row | SMILES | activity change, negative = cytotoxicity
1 | O=C1c2cccc3c(O)ccc(c23)C(=O)N1Cc1ccco1 | 8.13% (inactive)
2 | Cc1ccc(NC(=S)N/C(=N/S(=O)(=O)c2ccccc2)c2ccccc2)cc1 | 6.71% (inactive)
3 | O=C(O)c1cccc(-n2cccc2/C=C/[N+](=O)[O-])c1 | -0.655% (inactive)
4 | CCCCn1c(N)c(N(CCOC)C(=O)c2cc(C)oc2C)c(=O)[nH]c1=O | -6.37% (inactive)
5 | NC(=O)C1(N2CCCCC2)CCN(Cc2ccc(Br)cc2)CC1 | -2.98% (inactive)
6 | COc1cccc2c1NC(C(=O)O)C1CC=CC21 (stereo unspecified) | -12.8% (inactive)
7 | COC(=O)c1c(C)oc2ccc(N(C(C)=O)S(=O)(=O)c3ccccc3)cc12 | 1.25% (inactive)
8 | O=C(NCCN1CCN(C(=O)c2cccs2)CC1)c1cccs1 | -5.34% (inactive)
9 | CC1CC(C)(C)NC(=S)N1CC(=O)N(C)Cc1ccccc1 (stereo unspecified) | -2.63% (inactive)
10 | Cn1cc(/C=C2\C(=O)NC(=O)N(c3ccccc3)C2=O)c2ccccc21 | -26.5% (inactive)
11 | Clc1ccc(-c2nnc3sc(-c4ccc(Br)o4)nn23)cc1 | -3.6% (inactive)
12 | CCOC(=O)C1=C(COC(=O)c2ccc([N+](=O)[O-])s2)NC(=O)NC1C (stereo unspecified) | -1% (inactive)
13 | COC(=O)c1cc(N2CCN(C)CC2)nc2ccccc12 | -6.94% (inactive)
14 | CCc1ccc(C2CC(c3cccc(Cl)c3)n3nc(N)nc3N2)cc1 (stereo unspecified) | -1.95% (inactive)
15 | Cc1cc[n+](-c2[nH]c(=O)sc2/C=N/N=C(\[O-])c2ccccc2)cc1C | -3.68% (inactive)
16 | CCN(CC)S(=O)(=O)N1CCN(S(=O)(=O)N2CCOCC2)CC1 | 1.89% (inactive)
17 | O=C(O)/C=C/c1ccccc1Oc1ccccc1 | -8.62% (inactive)
18 | COc1cc(OC)cc(-c2c(-c3ccsc3)c3cc(Br)ccc3n2C)c1 | -23.6% (inactive)
19 | Nc1ccc2ccc3cccc[n+]3c2c1 | -15.1% (inactive)
20 | O=C1c2ccccc2C(Nc2ccc3c(c2)OCCO3)N1Cc1ccc2c(c1)OCO2 (stereo unspecified) | -13.3% (inactive)
21 | CSC(=NS(=O)(=O)c1ccc(N)cc1)NS(=O)(=O)c1cccs1 | -2.85% (inactive)
22 | CCN(CC)C(=O)c1ccc2c(c1)C1C=CCC1C(C(=O)O)N2 (stereo unspecified) | -7.76% (inactive)

Row | SMILES | activity change, negative = cytotoxicity
23 | Cc1ccccc1NC(=O)CN1C(=O)N/C(=C\c2cccn2-c2cccc(C(=O)O)c2)C1=O | -8.21% (inactive)
24 | COc1ccc(-c2csc(NC(=O)CSc3nc(C)nc4sc(C(=O)O)c(C)c34)n2)cc1 | -1.52% (inactive)
25 | CN(c1ccc(OCC(=O)OCC(=O)c2c(N)n(C)c(=O)n(C)c2=O)cc1)S(=O)(=O)c1ccc2ccccc2c1 | 3.95% (inactive)
26 | CCCCn1c(=O)[nH]c2nc3cc(N)ccc3nc2c1=O | -9.99% (inactive)
27 | N=C1/C(=C/c2ccc(-c3cccc(C(=O)O)c3)o2)C(=O)N=C2SC(CC(=O)N3CCOCC3)=NN12 | -4.55% (inactive)
28 | O=C(CSc1nc2ccccc2[nH]1)Nc1cccc(S(=O)(=O)N2CCOCC2)c1 | 3.94% (inactive)
29 | COc1ccc(S(=O)(=O)N2CCC(C(=O)N3CCCCC3)CC2)cc1 | -17.6% (inactive)
30 | CCN(CC)c1ccc2cc(S(=O)(=O)c3ccc(Cl)cc3)c(=O)oc2c1 | -13.6% (inactive)
31 | c1ccc2[nH]c3cc4ncnc4cc3nc2c1 | 5.9% (inactive)
32 | COC(=O)C1=C(N)OC2=C(C(=O)CCC2)C1c1cccs1 (stereo unspecified) | -5.56% (inactive)
33 | CC1Cc2ccccc2N1C(=O)CCS(=O)(=O)c1cccs1 (stereo unspecified) | -6.91% (inactive)
34 | O=C1CCCC2=C1C(c1ccc(O)c(O)c1)Nc1ccc3ncccc3c12 (stereo unspecified) | -1.08% (inactive)
35 | Cc1cc(=O)c2c([nH]1)c(C)cc1[nH]c(C)c(C)c12 | -3.16% (inactive)
36 | COc1ccc(OC)c(NC(=O)c2nnn(Cc3ccc(Br)cc3F)c2N)c1 | -9.89% (inactive)
37 | COc1ccc(C2C(C(=O)c3cccs3)=C(O)C(=O)N2c2nncs2)cc1 (stereo unspecified) | -14.2% (inactive)
38 | Cc1nc2c(=O)[nH]c(=S)[nH]c2[nH]c1=O | 1.86% (inactive)
39 | CCOC(=O)C1=C(O)/C(=C/c2cc(C)n(-c3ccccc3)c2C)N=C1C | 3.92% (inactive)
40 | Cc1cc2nc3c(=O)[nH]c(=S)[nH]c3nc2cc1NC(=O)C(F)(F)F | -3.95% (inactive)
41 | OCCN(CCO)c1nc(N2CCCCC2)c2nc(N(CCO)CCO)nc(N3CCCCC3)c2n1 | -1.48% (inactive)
42 | Nc1ccc2nc3c(=O)n(C4CCCCC4)c(=O)[nH]c3nc2c1 | -0.337% (inactive)
43 | O=C(COc1cccc(F)c1)Nc1nc(-c2cccnc2)cs1 | -21.4% (inactive)
44 | CCCCN(C(=O)CSc1nnc(-c2ccc(Cl)cc2)o1)c1c(N)n(CC(C)C)c(=O)[nH]c1=O | 5.27% (inactive)

Row | SMILES | activity change, negative = cytotoxicity
45 | CCC1(c2ccccc2)NC(=O)N(CC(=O)Nc2ccc(OC)nc2)C1=O (stereo unspecified) | -1.91% (inactive)
46 | O=c1[nH][nH]cc1C=Nc1ccc(Cl)cc1Cl | -7.34% (inactive)
47 | O=C(O)Cc1c[nH]c2cccc(O)c12 | -14.7% (inactive)
48 | Cc1nnc(NC(=O)CN2C(=O)NC3(CCCC3)C2=O)s1 | -0.18% (inactive)
49 | COc1cc(NC(=O)c2ccc(CNc3c(N4CCCC4)c(=O)c3=O)cc2)cc(OC)c1OC | -7.17% (inactive)
50 | CCOC(=O)C1CCCN(C(=O)C2c3ccccc3Oc3ccccc32)C1 (stereo unspecified) | -6.62% (inactive)
51 | O=C(Nc1ccc(Br)cn1)c1cccc2ccccc12 | -12.4% (inactive)
52 | S=c1c2c(nc3nc[nH]n13)CCC2 | -7.9% (inactive)
53 | CCc1nnc(NC(=O)c2cccc(S(=O)(=O)N(C)c3ccccc3)c2)s1 | -7.23% (inactive)
54 | COc1ccc(-c2cnc3n2CCCCC3)cc1 | 0.279% (inactive)
55 | C=CC1=C(C(=O)O)N2C(=O)[C@@H](NC(=O)/C(=N/OCC(=O)O)c3csc(N)n3)[C@H]2SC1 | -13.9% (inactive)
56 | O=C(O)CN1C(=O)/C(=C\c2cc(Br)ccc2OCc2ccc([N+](=O)[O-])cc2)SC1=S | -1.76% (inactive)
57 | CC(C)(C)OC(=O)N1CCC[C@H]1c1nnc(SCc2cccc(Cl)c2)o1 | -8.06% (inactive)
58 | CC(=O)NC(C(=O)c1ccccc1)C(=O)c1ccccc1 | 7.04% (inactive)
59 | O=C(c1cccc(S(=O)(=O)NCc2ccccc2)c1)N1CCN(c2ccccc2Cl)CC1 | 0.089% (inactive)
60 | Cc1cc(C)n(CC(=O)NNC(=O)CC(C)c2ccccc2)n1 (stereo unspecified) | -9.44% (inactive)
61 | O=c1c2c(nc3cc(-c4ccc(F)cc4)[nH]n13)CCC2 | -13.7% (inactive)
62 | O=C1/C(=C/c2ccco2)Oc2c1ccc(O)c2CN1CCCCC1 | 4.96% (inactive)
63 | COc1ccccc1C(=O)NCC(=O)OCC(=O)N(CC(C)C)c1c(N)n(Cc2ccccc2)c(=O)[nH]c1=O | 1.22% (inactive)
64 | COc1ccccc1CNC(=O)C(=O)NCC1CCCN1S(=O)(=O)c1cccs1 (stereo unspecified) | -4.86% (inactive)
65 | COc1cc2c(cc1OC)CN(C(=O)c1ccc(S(=O)(=O)N3CCCC3)cc1)CC2 | 1.87% (inactive)
66 | Brc1c(CSc2nncc3ccccc23)nc2ccccn12 | -1.12% (inactive)

Row | SMILES | activity change, negative = cytotoxicity
67 | COc1cccc(OC)c1C(=O)Nc1cc(C)on1 | 0.727% (inactive)
68 | C/C(=N/NC(=O)c1ccncc1)c1cc2ccc(O)cc2oc1=O | 3.38% (inactive)
69 | O=C(NC1(O)C(=O)c2ccccc2C1=O)c1c(Cl)cccc1Cl | -4.52% (inactive)
70 | COc1ccc(C2(CNC(=O)CCC(=O)O)CCCC2)cc1OC | -16% (inactive)
71 | Cc1cc(C)n(CCC(=O)N/N=C/c2ccc(O)cc2O)n1 | -6.35% (inactive)
72 | O=[N+]([O-])c1cc(-n2cnnn2)ccc1N1CCC(Cc2ccccc2)CC1 | -9.35% (inactive)
73 | O=C(/C=C\c1ccccc1)Oc1cccc2cccnc12 | -9.78% (inactive)
74 | O=C(O)COc1ccc2c(c1)O/C(=C\c1ccco1)C2=O | -1.96% (inactive)
75 | CC(C)=C[C@@H]1C[C@H](C)[C@H]2CC[C@H](C)c3c(O[C@@H]4O[C@@H](C)[C@@H](O)[C@@H](O)[C@@H]4O)c(O)c(C)c1c32 | -5.47% (inactive)
76 | c1ccc(-c2cn3nc(-c4ccccc4)c(-c4ccccc4)nc3n2)cc1 | -12.6% (inactive)
77 | Cc1nc2ccccc2n2c(O)c(CC(=O)O)cc12 | -13.5% (inactive)
78 | COC(=O)C[n+]1cccc2ccccc21 | -6.11% (inactive)
79 | Nc1ccc2nonc2c1[N+](=O)[O-] | 2.26% (inactive)
80 | COc1ccc(NC(=O)CO/N=C2/CCCc3nonc32)c(OC)c1 | -3.9% (inactive)
81 | Cc1ccc(CSc2ncnc3onc(C)c23)cc1 | -13.2% (inactive)
82 | Oc1ccc2ccc3cccc[n+]3c2c1 | -13.8% (inactive)
83 | Cn1c(=O)oc2cc(S(=O)(=O)CCC(=O)N3CCN(c4ccccc4F)CC3)ccc21 | -1.08% (inactive)
84 | O=c1oc2ccccc2nc1/C=C(\O)c1ccc(Br)cc1 | -12.7% (inactive)
85 | O=C(CN1CCN(C(=O)CNC(=O)c2ccc3c(c2)OCO3)CC1)Nc1ccc(F)cc1 | -9.87% (inactive)
86 | Cc1cc(/C=C2\C(=O)NC(=O)N(Cc3ccccc3)C2=O)c(C)n1-c1ccc(Cl)c(C(=O)O)c1 | 1.64% (inactive)
